According to ChEMBL document CHEMBL1136443, “Structure-activity relationship of benzo[b]thiophene-2-sulfonamide derivatives as novel human chymase inhibitors” (Bioorg Med Chem Lett, 2003):
One block for each compound: values may come before it.

Columns and labels:
[1] = In vitro inhibitory activity against human elastase
[2] = organism: Rattus norvegicus; experiment: Percentage of compound present in rat plasma after incubation for 60 min at 37 degree C; format: functional, organism-based
[3] = target: T1, Cathepsin G (Homo sapiens, UniProt P08311); experiment: In vitro inhibitory activity against human cathepsin G
T1 sequence (P08311 whole entry): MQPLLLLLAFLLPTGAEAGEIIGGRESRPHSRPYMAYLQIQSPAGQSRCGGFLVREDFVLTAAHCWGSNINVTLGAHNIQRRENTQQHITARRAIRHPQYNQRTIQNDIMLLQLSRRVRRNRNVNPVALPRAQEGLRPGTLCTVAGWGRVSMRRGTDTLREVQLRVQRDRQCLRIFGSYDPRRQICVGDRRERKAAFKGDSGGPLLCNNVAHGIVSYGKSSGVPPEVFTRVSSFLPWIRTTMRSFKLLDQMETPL

[4] = target: T2, Chymase (Homo sapiens, UniProt P23946); experiment: In vitro inhibitory activity against human chymase; NI Indicates no inhibition at 10 uM
T2 sequence (P23946 whole entry): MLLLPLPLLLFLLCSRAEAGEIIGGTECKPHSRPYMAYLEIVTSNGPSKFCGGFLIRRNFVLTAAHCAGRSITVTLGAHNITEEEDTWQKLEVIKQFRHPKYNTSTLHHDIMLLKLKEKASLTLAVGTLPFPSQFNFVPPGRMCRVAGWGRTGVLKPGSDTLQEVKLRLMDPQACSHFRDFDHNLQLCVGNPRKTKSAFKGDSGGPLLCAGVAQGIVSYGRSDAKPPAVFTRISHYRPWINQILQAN

[5] = target: T2, Chymase; experiment: In vitro inhibitory activity against human chymase

IC50 [1]: > 10000 nM
IC50 [3]: > 10000 nM
Structure (SMILES): COC(=O)c1ccc(NS(=O)(=O)c2sc3ccc(F)cc3c2C)c(S(C)(=O)=O)c1
Stability [2]: 74.3%

IC50 [4]: No inhibition
Structure (SMILES): CCCSc1ccc(NS(=O)(=O)c2sc3ccc(Cl)cc3c2C)cc1

IC50 [1]: > 10000 nM
IC50 [3]: > 10000 nM
Structure (SMILES): COC(=O)c1ccc(NS(=O)(=O)c2sc3ccc(Cl)cc3c2C)c(S(C)(=O)=O)c1
Stability [2]: 93.9%

IC50 [4]: No inhibition
Structure (SMILES): Cc1c(S(=O)(=O)Nc2ccc([N+](=O)[O-])cc2)sc2ccc(Cl)cc12

IC50 [5]: 594 nM
Structure (SMILES): COC(=O)c1ccc(NS(=O)(=O)c2sc3ccc(Cl)cc3c2C)c(S(C)(=O)=O)c1C

IC50 [5]: 325 nM
Structure (SMILES): COC(=O)c1ccc(NS(=O)(=O)c2sc3ccc(C)cc3c2C)c(S(C)(=O)=O)c1

IC50 [4]: No inhibition
Structure (SMILES): COC(=O)c1ccc(NS(=O)(=O)c2sc3ccc(Cl)cc3c2C)c(C(=O)OC)c1

IC50 [5]: > 1000 nM
Structure (SMILES): Cc1c(S(=O)(=O)Nc2ccc(C=O)cc2S(C)(=O)=O)sc2ccc(F)cc12

IC50 [5]: > 1000 nM
Structure (SMILES): Cc1c(S(=O)(=O)Nc2ccc(C(N)=O)cc2S(C)(=O)=O)sc2ccc(F)cc12

IC50 [4]: No inhibition
Structure (SMILES): Cc1c(S(=O)(=O)Nc2ccc(C#N)cc2)sc2ccc(Cl)cc12

IC50 [1]: > 10000 nM
IC50 [3]: > 10000 nM
Structure (SMILES): CC(=O)c1ccc(NS(=O)(=O)c2sc3ccc(F)cc3c2C)c(S(C)(=O)=O)c1
Stability [2]: 96.2%

IC50 [5]: > 1000 nM
Structure (SMILES): Cc1c(S(=O)(=O)Nc2ccc(C(=O)O)cc2S(C)(=O)=O)sc2ccc(F)cc12

IC50 [5]: 192 nM
Structure (SMILES): COCc1ccc(NS(=O)(=O)c2sc3ccc(F)cc3c2C)c(S(C)(=O)=O)c1

IC50 [5]: 337 nM
Structure (SMILES): Cc1c(S(=O)(=O)Nc2ccc(CO)cc2S(C)(=O)=O)sc2ccc(F)cc12

IC50 [5]: 10600 nM
Structure (SMILES): CCCS(=O)(=O)c1ccc(NS(=O)(=O)c2sc3ccc(Cl)cc3c2C)cc1
